Values quoted from earlier work, collected in patent US20230233572A1, “OPHTHALMIC COMPOSITIONS COMPRISING A COMBINATION OF FLUOROQUINOLONE ANTIBACTERIAL AGENT AND AN ANTI-INFLAMMATORY AGENT” (priority 2020, published 2023).

Test system: corneal surface of rabbit eyes
Conditions: in vivo

In the case of `CC(O)COC[C@H]1O[C@@H]2O[C@H]3[C@H](O)[C@@H](O)[C@@H](O[C@H]4[C@H](O)[C@@H](O)[C@@H](O[C@H]5[C@H](O)[C@@H](O)[C@@H](O[C@H]6[C@H](O)[C@@H](O)[C@@H](O[C@H]7[C@H](O)[C@@H](O)[C@@H](O[C@H]8[C@H](O)[C@@H](O)[C@@H](O[C@H]1[C@H](O)[C@H]2O)O[C@@H]8COCC(C)O)O[C@@H]7COCC(C)O)O[C@@H]6COCC(C)O)O[C@@H]5COCC(C)O)O[C@@H]4COCC(C)O)O[C@@H]3COCC(C)O` (stereo partly drawn) [HP-β-CD, hydroxypropyl-β-cyclodextrin], the “Tolerance by the corneal surface” value is listed as “well tolerated” and the “Toxicity or irritation in rabbit eyes” value is listed as “not to be toxic or irritating”.
